Reference: patent US8580955B2, “Purification method and production method for cellobiose” (Matsutani Chemical Industry Co., Ltd., priority 2005, dated 2013)

Assays:
[1] = Determination of solubility of cellobiose (Karl Fisher moisture of supernatant); format: physicochemical; settings: supernatant of 20% (w/v) solution after crystal formation, 100% minus moisture content
Experimental: There was prepared a 20% (w/v) solution of a commercially available cellobiose (manufactured by Wako Pure Chemical Co., Ltd.), the resulting solution was introduced into a thermostatic chamber maintained at a temperature ranging from 10 to 60° C. to thus form crystals of cellobiose, thereafter the content of water present in the supernatant was determined using a Karl Fisher moisture meter and then the solubility was calculated by subtracting the moisture content from 100%.

[2] = Solubility in water expressed as dissolution time; format: physicochemical; settings: for Dissolution Time: 10 g in 100 mL deionized water at 25 °C with stirring
Experimental: The solubility (the rate of dissolution) of crystalline cellobiose in water may vary depending on the rates of the stereoisomers (the rates of the α- and β-anomers). For instance, when the cellobiose crystals are dissolved in water, the resulting solution is maintained at a high temperature falling within the range in which the solution is not boiled, preferably 80 to 95° C. for a time ranging from 0.5 to 2.0 hours and then the solution is dried while maintaining the same at that temperature, the ratio of the α-anomer is increased to thus give cellobiose powder improved in its solubility in water.
The cellobiose-containing sugar solution having a high content of cellobiose, prepared in Example 4 was concentrated to a solid content concentration of 20%, the sugar solution was then maintained at a temperature of 20° C., 60° C. or 80° C. for one hour and, immediately thereafter, the solution was dried in a spray dryer to thus give cellobiose powder. These powdery cellobiose products were inspected for the solubility in water and the distribution rate of anomers. In this respect, the distribution rate of anomers was determined using Gas Chromatograph GC14 available from Shimadzu Corporation which was equipped with a column: DB1701 (inner diameter: 0.25 mm; length: 30 m) available from J & W Company. More specifically, each sample (1.0 mg) was dissolved in 0.769 mL of pyridine, 0.077 mL of TMSC and 0.154 mL of HMDS were added to the resulting solution, the mixture was maintained at room temperature for one hour and then it was used in the gas chromatography analysis.

O=C[C@H](O)[C@@H](O)[C@H](O[C@@H]1O[C@H](CO)[C@@H](O)[C@H](O)[C@H]1O)[C@H](O)CO [Cellobiose, cellobiose]
Solubility of Cellobiose ([1]; 10 °C): 13.5% | Solubility of Cellobiose ([1]; 20 °C): 14.0% | Solubility of Cellobiose ([1]; 30 °C): 14.7% | Solubility of Cellobiose ([1]; 40 °C): 18.4% | Solubility of Cellobiose ([1]; 50 °C): 22.9% | Solubility of Cellobiose ([1]; 60 °C): 26.3%

O=C[C@H](O)[C@@H](O)[C@H](O[C@@H]1O[C@H](CO)[C@@H](O)[C@H](O)[C@H]1O)[C@H](O)CO [Example 1, cellobiose]
time required for the dissolution ([2]; 10 g sample in 100 mL deionized water at 25 °C with stirring, crystals): 12.5 min

O=C[C@H](O)[C@@H](O)[C@H](O[C@@H]1O[C@H](CO)[C@@H](O)[C@H](O)[C@H]1O)[C@H](O)CO [Example 5, cellobiose]
Dissolution Time ([2]; powder spray-dried from sugar solution kept at 20 °C for one hour): 8.0 min | Dissolution Time ([2]; powder spray-dried from sugar solution kept at 60 °C for one hour): 4.0 min | Dissolution Time ([2]; powder spray-dried from sugar solution kept at 80 °C for one hour): 2.5 min
